# Source: PubChem BioAssay (NCI)
#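 Following 48 hours of exposure in 96-well plates, responses at five concentrations were used to interpolate endpoints linearly. Here, GI50 denotes the concentration required for 50% inhibition of growth. TGI marks complete inhibition of growth.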
# How the values were obtained:
# Assay in all cases: DTP human tumour cell line panel, 48 h
# U251 CNS = system: U251 CNS
# SNB-75 CNS = system: SNB-75 CNS
# UACC-62 melanoma = system: UACC-62 melanoma
# A498 renal = system: A498 renal
# LOX IMVI melanoma = system: LOX IMVI melanoma
# IGROV1 ovarian = system: IGROV1 ovarian
# 786-0 renal = system: 786-0 renal
# HOP-92 NSCLC = system: HOP-92 NSCLC
# HL-60(TB) leukemia = system: HL-60(TB) leukemia
# RPMI-8226 leukemia = system: RPMI-8226 leukemia
Compound,GI50 (U251 CNS) [µM],TGI (U251 CNS) [µM],GI50 (SNB-75 CNS) [µM],TGI (SNB-75 CNS) [µM],GI50 (UACC-62 melanoma) [µM],TGI (UACC-62 melanoma) [µM],GI50 (A498 renal) [µM],TGI (A498 renal) [µM],GI50 (LOX IMVI melanoma) [µM],TGI (LOX IMVI melanoma) [µM],GI50 (IGROV1 ovarian) [µM],TGI (IGROV1 ovarian) [µM],GI50 (786-0 renal) [µM],TGI (786-0 renal) [µM],GI50 (HOP-92 NSCLC) [µM],TGI (HOP-92 NSCLC) [µM],GI50 (HL-60(TB) leukemia) [µM],TGI (HL-60(TB) leukemia) [µM],TGI (RPMI-8226 leukemia) [µM],GI50 (RPMI-8226 leukemia) [µM]
COc1cc2c(cc1OC)C(=O)C(Br)CC2 (stereo unspecified),12.8,25.7,5.27,18.9,2.01,4.55,11.3,23.6,1.74,3.34,6.23,19.7,4.01,13.4,2.63,12.2,4.91,28.9,–,–
O/N=C1/C(=C/c2ccc(F)cc2)CCCC1C(NO)c1ccc(F)cc1 (stereo unspecified),–,> 100,–,> 100,–,> 100,–,> 100,–,–,–,> 100,–,> 100,–,–,–,49.1,49.8,–
CCOC(=O)c1cnc(SCc2ccc(Cl)c(Cl)c2)nc1N1CC1,3.71,18.2,2.05,6.09,4.23,19.5,2.82,14.4,1,5.73,2.2,–,3.24,14.1,–,–,1.72,9.13,9.64,2.54
COC1C=C(Nc2cccc(Cl)c2)C(=O)C1 (stereo unspecified),–,> 100,–,> 100,–,> 100,–,32.2,–,> 100,–,> 100,–,> 100,–,> 100,–,> 100,–,–
CCOC(=O)/C(C1=N[C@H](C(=O)OCC)CS1)=C(\C)O,–,> 100,–,> 100,–,> 100,–,–,–,> 100,–,> 100,–,> 100,–,–,–,> 100,> 100,–
CC(C)=CC(=O)CC(=O)C(=O)Nc1ccc(C)c(C)c1,–,> 100,–,> 100,–,> 100,–,–,–,> 100,–,> 100,–,> 100,–,> 100,–,> 100,> 100,–
O=C1C2=C(c3ccccc31)C(c1ccc(Cl)cc1)N1C(=O)CCSC1=N2 (stereo unspecified),–,> 100,–,> 100,–,> 100,–,> 100,–,–,–,> 100,–,> 100,–,> 100,–,> 100,> 100,–
S=c1[nH]nc(COc2ccc(Cl)cc2)o1,–,> 100,–,> 100,–,> 100,–,> 100,–,–,–,> 100,–,> 100,–,> 100,–,> 100,> 100,–
COc1cc(C(=O)O)c([N+](=O)[O-])c(OC)c1OC,–,> 100,–,> 100,–,> 100,–,> 100,–,> 100,–,> 100,–,> 100,–,> 100,–,–,> 100,–
C1CCC([PH+](C2CCCCC2)C2CCCCC2[PH+](C2CCCCC2)C2CCCCC2)CC1.[Au].[CH-]1CCCCC1C1CCCC[N-]1 (stereo unspecified),–,–,0.194,0.833,0.254,0.979,0.122,0.581,–,–,–,–,0.43,1.9,0.241,1.14,0.272,0.826,> 100,0.132
O=C(Cc1ccccc1)NN1C(=O)C(Cl)C1c1cccc(O)c1 (stereo unspecified),–,24.4,–,74.6,–,–,–,–,–,27.9,–,34.8,–,31.5,–,–,–,32.8,10.1,–
NNC(=O)/C(=C/c1cccc([N+](=O)[O-])c1)NC(=O)c1ccccc1,–,> 100,–,> 100,–,–,–,> 100,–,> 100,–,> 100,–,> 100,–,> 100,–,> 100,> 100,–
COc1cc(C2C(Cl)C(=O)N2n2cnc3ccccc3c2=O)cc(OC)c1OC (stereo unspecified),–,> 100,–,> 100,–,> 100,–,–,–,> 100,–,> 100,–,> 100,–,–,–,> 100,> 100,–
NC(N)=NS(=O)(=O)c1ccc(NC(=O)c2cccc3c(Nc4ccc(S(=O)(=O)N=C(N)N)cc4)c4ccc(Cl)cc4nc23)cc1,–,> 100,–,> 100,–,> 100,–,> 100,–,> 100,–,> 100,–,> 100,–,93,–,–,> 100,–
CCOC(=O)Cc1c(Cc2[nH]c(C(=O)OCc3ccccc3)c(CC(=O)OCC)c2CC(=O)OCC)[nH]c(C(=O)OCc2ccccc2)c1CC(=O)OCC,–,> 100,–,> 100,–,> 100,–,> 100,–,–,–,> 100,–,> 100,–,> 100,–,> 100,> 100,–
CCCCN(CCCC)C(=O)C(=O)CC(=O)c1ccc(Br)cc1,–,> 100,–,–,–,> 100,–,> 100,–,> 100,–,> 100,–,> 100,–,> 100,–,> 100,> 100,–
NC(N)=NC(CC(=O)O)c1ccccc1 (stereo unspecified),–,> 100,–,> 100,–,> 100,–,> 100,–,> 100,–,> 100,–,> 100,–,> 100,–,–,> 100,–
CC1=C(C(=O)Nc2ccccc2)C(c2ccc3c(c2)OCO3)C(C(=O)Nc2ccccc2)=C(C)N1,–,–,–,–,–,> 100,–,> 100,–,76.5,–,> 100,–,> 100,–,–,–,42.4,79.4,–
Cn1ncc2cc3c(Nc4ccc(Cl)cc4)cccc3nc21,–,–,–,> 100,–,32.7,–,–,–,41.4,–,38.8,–,> 100,–,47.7,–,43.4,34.2,–
O=C1c2cc3c(cc2-c2c1c1cc(Cl)c(Cl)cc1c(=O)n2CCCn1ccnc1)OCO3,< 0.01,11.6,< 0.01,17.1,< 0.01,0.0117,0.0107,0.0638,< 0.01,0.0183,0.0295,> 100,< 0.01,11.4,–,–,< 0.01,15.9,10.4,< 0.01
CC(Cc1ccc(Cl)cc1Cl)NO (stereo unspecified),–,> 100,–,> 100,–,> 100,–,> 100,–,> 100,–,> 100,–,> 100,–,–,–,–,> 100,–
